According to ChEMBL document CHEMBL1201862, “PubChem BioAssay data set” (2004):
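Grown in 96-well plates, cells were treated for 48 hours with each compound at five concentrations. Insufficient inhibition: endpoint recorded as highest concentration tested. At the GI50, growth is halved.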 Active and inactive are the calls of the source. No stated cut-off is given here; in the data, active = GI50 up to about 1.1 µM and inactive = higher.

Experiments:
Experiment in all cases: NCI anticancer screen, dose series, 48 h
CCRF-CEM = tested on: CCRF-CEM
LOX IMVI = tested on: LOX IMVI
SNB-78 = tested on: SNB-78
MOLT-4 = tested on: MOLT-4
NCI-H226 = tested on: NCI-H226
OVCAR-4 = tested on: OVCAR-4
SR = tested on: SR
SNB-75 = tested on: SNB-75
CAKI-1 = tested on: CAKI-1
SW-620 = tested on: SW-620
HOP-62 = tested on: HOP-62
M19-MEL = tested on: M19-MEL
K562 = tested on: K562
SF-539 = tested on: SF-539
OVCAR-3 = tested on: OVCAR-3
786-0 = tested on: 786-0
A498 = tested on: A498

Row | Compound | GI50 (CCRF-CEM) | GI50 (LOX IMVI) | GI50 (SNB-78) | GI50 (MOLT-4) | GI50 (NCI-H226) | GI50 (OVCAR-4) | GI50 (SR) | GI50 (SNB-75) | GI50 (CAKI-1) | GI50 (SW-620) | GI50 (HOP-62) | GI50 (M19-MEL) | GI50 (K562) | GI50 (SF-539) | GI50 (OVCAR-3) | GI50 (786-0) | GI50 (A498)
1 | NC1C(O)C(O)C(CO)OC1n1cc(F)c(=O)[nH]c1=O (stereo unspecified) | > 100 µM (inactive) | > 100 µM (inactive) | > 100 µM (inactive) | > 100 µM (inactive) | > 100 µM (inactive) | > 100 µM (inactive) | > 100 µM (inactive) | 91.2 µM (inactive) | > 100 µM (inactive) | > 100 µM (inactive) |  |  |  |  |  |  | 
2 | CCCCCC(/C=C/c1ncccc1OCCCCCC(=O)O)=N\NC1=NCCN1 | 53.6 µM (inactive) | 74 µM (inactive) |  | 62.7 µM (inactive) | > 100 µM (inactive) | 78.7 µM (inactive) | 39.4 µM (inactive) | 40.2 µM (inactive) | > 100 µM (inactive) | 85.1 µM (inactive) | > 100 µM (inactive) | > 100 µM (inactive) | 60.3 µM (inactive) | 76 µM (inactive) | 89.9 µM (inactive) |  | 
3 | CC1(C)N=C(N)N=C(N)N1c1ccc(CCc2ccccc2)cc1 | 1.91 µM (inactive) | 0.675 µM (active) | 13.6 µM (inactive) | 3.61 µM (inactive) | 14.2 µM (inactive) | 3.53 µM (inactive) |  | 28.5 µM (inactive) | 21.6 µM (inactive) | 0.301 µM (active) |  | 2.84 µM (inactive) | 2.23 µM (inactive) | 2.78 µM (inactive) | 1.79 µM (inactive) |  | 
4 | Clc1cc2nsnc2c(Cl)n1 | 6.03 µM (inactive) | 33 µM (inactive) | 56.4 µM (inactive) | 14.2 µM (inactive) | 20.6 µM (inactive) | 17.1 µM (inactive) |  |  | 10.8 µM (inactive) | 10.2 µM (inactive) | > 100 µM (inactive) | 24.7 µM (inactive) | 5.41 µM (inactive) | 22.9 µM (inactive) | 17.9 µM (inactive) | 16.9 µM (inactive) | > 100 µM (inactive)
5 | Cc1c2ccncc2c(C)c2c1[nH]c1ccccc12 [ELLIPTECINE] | 0.411 µM (active) | 0.536 µM (active) | 1.48 µM (inactive) | 0.256 µM (active) | 1.42 µM (inactive) | 0.802 µM (active) |  | 1.47 µM (inactive) | 1.21 µM (inactive) | 0.36 µM (active) | 0.818 µM (active) | 0.857 µM (active) | 0.47 µM (active) | 0.867 µM (active) | 0.322 µM (active) |  | 0.794 µM (active)
6 | CN1C2CCC1/C(=C/c1cccc3c1OCO3)C(=O)/C2=C\c1cccc2c1OCO2 | 78 µM (inactive) | > 100 µM (inactive) |  | > 100 µM (inactive) | > 100 µM (inactive) |  | > 100 µM (inactive) | 11.1 µM (inactive) |  | > 100 µM (inactive) | 12.3 µM (inactive) | > 100 µM (inactive) | > 10 µM (inactive) |  | 87.3 µM (inactive) |  | 
7 | O=C1c2ccccc2C(O)(C(=O)O)C1(O)CC=C(Cl)Cl (stereo unspecified) | > 125 µM (inactive) | > 125 µM (inactive) | > 125 µM (inactive) | > 125 µM (inactive) | > 125 µM (inactive) | > 125 µM (inactive) |  | > 125 µM (inactive) | > 125 µM (inactive) | > 125 µM (inactive) | > 125 µM (inactive) | > 125 µM (inactive) | > 125 µM (inactive) | > 125 µM (inactive) | > 125 µM (inactive) |  | > 125 µM (inactive)
8 | O=C(NCCCl)O/N=C/c1cccnc1 | > 100 µM (inactive) | > 100 µM (inactive) |  | > 100 µM (inactive) | > 100 µM (inactive) | > 100 µM (inactive) |  | 61 µM (inactive) | > 100 µM (inactive) | > 100 µM (inactive) | > 100 µM (inactive) | > 100 µM (inactive) | > 100 µM (inactive) | > 100 µM (inactive) | > 100 µM (inactive) |  | > 100 µM (inactive)
9 | CC(C)CCCC(C)[C@H]1CCC(C2C[C@@H](O)[C@@H]3CC(O)[C@@H](O)C[C@]3(CO)C2=O)[C@]1(C)CCO (stereo partly specified) | 17 µM (inactive) | 20.9 µM (inactive) | 32.7 µM (inactive) | 0.491 µM (active) | 30.7 µM (inactive) | 30.6 µM (inactive) |  | 20.4 µM (inactive) |  | 23.4 µM (inactive) | 23.9 µM (inactive) | 21 µM (inactive) | 24.4 µM (inactive) | 20.9 µM (inactive) | 21.4 µM (inactive) |  | 25.6 µM (inactive)
10 | CCn1c(=O)c(C(=O)O)c(Cl)c2cc3c(cc21)OCO3 | > 100 µM (inactive) | > 100 µM (inactive) | > 100 µM (inactive) | > 100 µM (inactive) | > 100 µM (inactive) | > 100 µM (inactive) |  | > 100 µM (inactive) | > 100 µM (inactive) | > 100 µM (inactive) | > 100 µM (inactive) | > 100 µM (inactive) | > 100 µM (inactive) | > 100 µM (inactive) | > 100 µM (inactive) |  | > 100 µM (inactive)
11 | COC(=O)C1=C(C)N2CCOC2CC1c1ccccc1 (stereo unspecified) | 45.4 µM (inactive) |  |  | 77.4 µM (inactive) | > 100 µM (inactive) | > 100 µM (inactive) | 78.9 µM (inactive) | > 100 µM (inactive) | > 100 µM (inactive) | > 100 µM (inactive) | > 100 µM (inactive) | > 100 µM (inactive) | 70.5 µM (inactive) | > 100 µM (inactive) | 49.5 µM (inactive) |  | 
12 | C/C=C(\C)C(=O)OC1C2C(C)=CC(=O)C(O)C2(C)C2C3(O)OCC24C1OC(=O)C(OC(C)=O)C4C(C)C3O (stereo unspecified) | 0.0375 µM (active) | 0.0375 µM (active) | 0.0483 µM (active) | 0.0375 µM (active) | 0.0375 µM (active) | 0.11 µM (active) |  | 0.0389 µM (active) | 0.197 µM (active) | 0.0594 µM (active) | 0.0375 µM (active) | 0.0375 µM (active) | 0.0375 µM (active) |  | 0.0375 µM (active) |  | 0.0611 µM (active)
13 | Cc1cc(N(CCC#N)CCC#N)ccc1/C=C(\NC(=O)/C=C/c1ccccc1)C(=O)Nc1ccccc1Cl | > 100 µM (inactive) | > 100 µM (inactive) | > 100 µM (inactive) | > 100 µM (inactive) | > 100 µM (inactive) | > 100 µM (inactive) |  |  | 78.7 µM (inactive) | > 100 µM (inactive) |  | > 100 µM (inactive) | > 100 µM (inactive) | > 100 µM (inactive) | > 100 µM (inactive) | > 100 µM (inactive) | > 100 µM (inactive)
14 | COC(=O)c1sc(=O)n(-c2ccccc2)c1SCc1ccccc1 | > 100 µM (inactive) | > 100 µM (inactive) |  | > 100 µM (inactive) | > 100 µM (inactive) | > 100 µM (inactive) | > 100 µM (inactive) | > 100 µM (inactive) |  | > 100 µM (inactive) | > 100 µM (inactive) | > 100 µM (inactive) | > 100 µM (inactive) | > 100 µM (inactive) | > 100 µM (inactive) | > 100 µM (inactive) | 
